{
  "source": "patent US20240197726A1",
  "about": "“NOVEL TETRAHYDROISOQUINOLINE ALKALOID COMPOUND CONTAINING MACROCYCLE” (THE UNIVERSITY OF TOKYO, priority 2021, published 2024)",
  "assay_type_in_all_cases": "cell-based",
  "key": {"[1]": {"tested_on": "HBC-4 breast cancer cells", "experiment": "antitumor activity, sulforhodamine B cell growth assay, HBC-4", "conditions": "HBC-4, drug exposure 48 hours, read-out: GI50 value: 50% growth inhibitory concentration", "experimental": "(§1) The THIQ compound containing a macrocyclic structure of the present invention was administered to various cancer cell lines, and the antitumor activity (Go value) was observed. Specifically, verification was performed according to the literature (Yamori, T.; Matsunaga, A.; Sato, S.; Yamazaki, K.; Komi, A.; Ishizu, K. et al. Cancer Res. 1999, 59, 4042) by the following procedure.\n(§2) Cells were plated at an appropriate density in a 96-well plate in RPMI 1640 together with 5% fetal bovine serum, and adhered overnight. The cells were exposed to a drug for 48 hours. Then, according to the sulforhodamine B assay described by Skehan et al (Skehan P., Storeng R., Scudiero D., Monks A., McMahon J., Vistica D., Warren J. T., Bokesch H., Kenney S., Boyd M. R. J Natl. Cancer Inst, 1990, 82, 1107-1112), the cell growth rate was measured. The absorbance of the control well (C) and the test well (T) was measured at 525 nm. In addition, the time at which the drug was added was set as time 0, and the absorbance for the test well (T0) was measured. Using these measured values, the cell growth inhibitory effect (% growth=PG) was calculated by the following formula at each concentration of the drug.\n(§3) (T<T0): PG=100×[(T−T0)/T]\n(§4) The PG values determined above for each cell line were plotted against the concentration (logarithm) on a semi-logarithmic graph, and summarized for each visceral cancer. Concentrations at which the dose-response curve of each cell line crossed the horizontal line of PG=50%, 0%, or −50% were calculated. These concentrations were defined as Log GI50, Log TGI, and Log LC50. Actually, using two data points of the drug concentration before and after crossing each horizontal line, the drug concentration (logarithmic value) at the intersection of the straight line connecting the two points and the horizontal line for each PG was calculated."}, "[2]": {"tested_on": "BSY-1 breast cancer cells", "experiment": "antitumor activity, sulforhodamine B cell growth assay, BSY-1", "conditions": "BSY-1, drug exposure 48 hours; read-out: GI50 value: 50% growth inhibitory concentration", "experimental": "as §1, §2, §3, §4"}, "[3]": {"tested_on": "HBC-5 breast cancer cells", "experiment": "antitumor activity, sulforhodamine B cell growth assay, HBC-5", "conditions": "HBC-5, drug exposure 48 hours, read-out: GI50 value: 50% growth inhibitory concentration", "experimental": "as §1, §2, §3, §4"}, "[4]": {"tested_on": "U251 central nervous system cancer cells", "experiment": "antitumor activity, sulforhodamine B cell growth assay, U251", "conditions": "U251, drug exposure 48 hours, read-out: GI50 value: 50% growth inhibitory concentration", "experimental": "as §1, §2, §3, §4"}, "[5]": {"tested_on": "SF-268 central nervous system cancer cells", "experiment": "antitumor activity, sulforhodamine B cell growth assay, SF-268", "conditions": "SF-268, drug exposure 48 hours, read-out: GI50 value: 50% growth inhibitory concentration", "experimental": "as §1, §2, §3, §4"}, "[6]": {"tested_on": "SNB-78 central nervous system cancer cells", "experiment": "antitumor activity, sulforhodamine B cell growth assay, SNB-78", "conditions": "SNB-78, drug exposure 48 hours, read-out: GI50 value: 50% growth inhibitory concentration", "experimental": "as §1, §2, §3, §4"}, "[7]": {"tested_on": "HCC2998 colorectal cancer cells", "experiment": "antitumor activity, sulforhodamine B cell growth assay, HCC2998", "conditions": "HCC2998, drug exposure 48 hours, read-out: GI50 value: 50% growth inhibitory concentration", "experimental": "as §1, §2, §3, §4"}, "[8]": {"tested_on": "KM-12 colorectal cancer cells", "experiment": "antitumor activity, sulforhodamine B cell growth assay, KM-12", "conditions": "KM-12, drug exposure 48 hours, read-out: GI50 value: 50% growth inhibitory concentration", "experimental": "as §1, §2, §3, §4"}, "[9]": {"tested_on": "HCT-15 colorectal cancer cells", "experiment": "antitumor activity, sulforhodamine B cell growth assay, HCT-15", "conditions": "HCT-15, drug exposure 48 hours, read-out: GI50 value: 50% growth inhibitory concentration", "experimental": "as §1, §2, §3, §4"}, "[10]": {"tested_on": "HCT-116 colorectal cancer cells", "experiment": "antitumor activity, sulforhodamine B cell growth assay, HCT-116", "conditions": "HCT-116, drug exposure 48 hours, read-out: GI50 value: 50% growth inhibitory concentration", "experimental": "as §1, §2, §3, §4"}, "[11]": {"tested_on": "NCI-H460 lung cancer cells", "experiment": "antitumor activity, sulforhodamine B cell growth assay, NCI-H460", "conditions": "NCI-H460, drug exposure 48 hours, read-out: GI50 value: 50% growth inhibitory concentration", "experimental": "as §1, §2, §3, §4"}, "[12]": {"tested_on": "DMS273 lung cancer cells", "experiment": "antitumor activity, sulforhodamine B cell growth assay, DMS273", "conditions": "DMS273, drug exposure 48 hours, read-out: GI50 value: 50% growth inhibitory concentration", "experimental": "as §1, §2, §3, §4"}, "[13]": {"tested_on": "DMS114 lung cancer cells", "experiment": "antitumor activity, sulforhodamine B cell growth assay, DMS114", "conditions": "DMS114, drug exposure 48 hours, read-out: GI50 value: 50% growth inhibitory concentration", "experimental": "as §1, §2, §3, §4"}, "[14]": {"tested_on": "LOX-IMVI melanoma cells", "experiment": "antitumor activity, sulforhodamine B cell growth assay, LOX-IMVI", "conditions": "LOX-IMVI, drug exposure 48 hours, read-out: GI50 value: 50% growth inhibitory concentration", "experimental": "as §1, §2, §3, §4"}, "[15]": {"tested_on": "OVCAR-3 cancer cells", "experiment": "antitumor activity, sulforhodamine B cell growth assay, OVCAR-3", "conditions": "OVCAR-3, drug exposure 48 hours, read-out: GI50 value: 50% growth inhibitory concentration", "experimental": "as §1, §2, §3, §4"}, "[16]": {"tested_on": "OVCAR-8 cancer cells", "experiment": "antitumor activity, sulforhodamine B cell growth assay, OVCAR-8", "conditions": "OVCAR-8, drug exposure 48 hours, read-out: GI50 value: 50% growth inhibitory concentration", "experimental": "as §1, §2, §3, §4"}, "[17]": {"tested_on": "ACHN kidney cancer cells", "experiment": "antitumor activity, sulforhodamine B cell growth assay, ACHN", "conditions": "ACHN, drug exposure 48 hours, read-out: GI50 value: 50% growth inhibitory concentration", "experimental": "as §1, §2, §3, §4"}, "[18]": {"tested_on": "St-4 gastric cancer cells", "experiment": "antitumor activity, sulforhodamine B cell growth assay, St-4", "conditions": "St-4 (SI-4 in Tables 2-11), drug exposure 48 hours; read-out: GI50 value: 50% growth inhibitory concentration", "experimental": "as §1, §2, §3, §4"}, "[19]": {"tested_on": "MKN1 gastric cancer cells", "experiment": "antitumor activity, sulforhodamine B cell growth assay, MKN1", "conditions": "MKN1, drug exposure 48 hours, read-out: GI50 value: 50% growth inhibitory concentration", "experimental": "as §1, §2, §3, §4"}, "[20]": {"tested_on": "MKN-B gastric cancer cells", "experiment": "antitumor activity, sulforhodamine B cell growth assay, MKN-B", "conditions": "MKN-B, drug exposure 48 hours; read-out: GI50 value: 50% growth inhibitory concentration", "experimental": "as §1, §2, §3, §4"}, "[21]": {"tested_on": "MKN45 gastric cancer cells", "experiment": "antitumor activity, sulforhodamine B cell growth assay, MKN45", "conditions": "MKN45, drug exposure 48 hours, read-out: GI50 value: 50% growth inhibitory concentration", "experimental": "as §1, §2, §3, §4"}, "[22]": {"tested_on": "various cancer cell lines", "experiment": "Verification of antitumor activity, whole panel of cancer cell lines", "conditions": "in words, compared with Cyanosafracin B", "experimental": "as §1, §2, §3, §4"}},
  "note": "Where two headings read alike, the source gives them in different places.",
  "data": [
    {"smiles": "COc1c(C)cc2c(c1O)[C@@H]1[C@@H]3Cc4c5c(C)c6c(c4C(CNC(=O)[C@H](C)NC(=O)OCC4C=C(CO5)Cn5c(=O)n(-c7ccccc7)c(=O)n54)N3[C@@H](C#N)[C@H](C2)N1C)OCO6", "note": "[Compound 16]", "values": [
      {"measurement": "GI50", "setting": "[1]; HBC4", "result": 5.2, "unit": "nM"},
      {"measurement": "GI50", "setting": "[2]", "result": 3.1, "unit": "nM"},
      {"measurement": "GI50", "setting": "[3]; HBC5", "result": 6.9, "unit": "nM"},
      {"measurement": "GI50", "setting": "[4]; Homo sapiens, U-251", "result": 5.8, "unit": "nM"},
      {"measurement": "GI50", "setting": "[5]; Homo sapiens", "result": 13, "unit": "nM"},
      {"measurement": "GI50", "setting": "[6]; Homo sapiens", "result": 7.5, "unit": "nM"},
      {"measurement": "GI50", "setting": "[7]; Homo sapiens, HCC 2998", "result": 17, "unit": "nM"},
      {"measurement": "GI50", "setting": "[8]; Homo sapiens, KM12", "result": 14, "unit": "nM"},
      {"measurement": "GI50", "setting": "[9]; Homo sapiens", "result": 43, "unit": "nM"},
      {"measurement": "GI50", "setting": "[10]; Homo sapiens", "result": 9.3, "unit": "nM"},
      {"measurement": "GI50", "setting": "[11]; Homo sapiens", "result": 36, "unit": "nM"},
      {"measurement": "GI50", "setting": "[12]; Homo sapiens, DMS-273", "result": 15, "unit": "nM"},
      {"measurement": "GI50", "setting": "[13]; Homo sapiens, DMS-114", "result": 3.8, "unit": "nM"},
      {"measurement": "GI50", "setting": "[14]; Homo sapiens", "result": 3.3, "unit": "nM"},
      {"measurement": "GI50", "setting": "[15]; Homo sapiens", "result": 6.4, "unit": "nM"},
      {"measurement": "GI50", "setting": "[16]; Homo sapiens", "result": 21, "unit": "nM"},
      {"measurement": "GI50", "setting": "[17]; Homo sapiens", "result": 25, "unit": "nM"},
      {"measurement": "GI50", "setting": "[18]", "result": 37, "unit": "nM"},
      {"measurement": "GI50", "setting": "[19]; Homo sapiens, MKN-1", "result": 4.8, "unit": "nM"},
      {"measurement": "GI50", "setting": "[20]", "result": 30, "unit": "nM"},
      {"measurement": "GI50", "setting": "[21]; Homo sapiens, MKN-45", "result": 7.1, "unit": "nM"},
      {"measurement": "antitumor activity", "setting": "[22]", "result": "better antitumor activity than Cyanosafracin B"}
    ]},
    {"smiles": "COc1c(C)cc2c(c1O)C1C3Cc4c5c(C)c6c(c4C(CNC(=O)C(C)NC(=O)OCC4C=C(CO5)CC5C(=O)N(c7ccccc7)C(=O)C45)N3C(C#N)C(C2)N1C)OCO6", "note": "(centres unmarked) [Compound 18]", "values": [
      {"measurement": "GI50", "setting": "[1]", "result": 30, "unit": "nM"},
      {"measurement": "GI50", "setting": "[2]", "result": 19, "unit": "nM"},
      {"measurement": "GI50", "setting": "[3]", "result": 38, "unit": "nM"},
      {"measurement": "GI50", "setting": "[4]", "result": 50, "unit": "nM"},
      {"measurement": "GI50", "setting": "[5]", "result": 74, "unit": "nM"},
      {"measurement": "GI50", "setting": "[6]", "result": 40, "unit": "nM"},
      {"measurement": "GI50", "setting": "[7]", "result": 95, "unit": "nM"},
      {"measurement": "GI50", "setting": "[8]", "result": 100, "unit": "nM"},
      {"measurement": "GI50", "setting": "[9]", "result": 630, "unit": "nM"},
      {"measurement": "GI50", "setting": "[10]", "result": 74, "unit": "nM"},
      {"measurement": "GI50", "setting": "[11]", "result": 260, "unit": "nM"},
      {"measurement": "GI50", "setting": "[12]", "result": 100, "unit": "nM"},
      {"measurement": "GI50", "setting": "[13]", "result": 12, "unit": "nM"},
      {"measurement": "GI50", "setting": "[14]", "result": 27, "unit": "nM"},
      {"measurement": "GI50", "setting": "[15]", "result": 43, "unit": "nM"},
      {"measurement": "GI50", "setting": "[16]", "result": 130, "unit": "nM"},
      {"measurement": "GI50", "setting": "[17]", "result": 240, "unit": "nM"},
      {"measurement": "GI50", "setting": "[18]", "result": 300, "unit": "nM"},
      {"measurement": "GI50", "setting": "[19]", "result": 50, "unit": "nM"},
      {"measurement": "GI50", "setting": "[20]", "result": 160, "unit": "nM"},
      {"measurement": "GI50", "setting": "[21]", "result": 78, "unit": "nM"},
      {"measurement": "antitumor activity", "setting": "[22]", "result": "better antitumor activity than Cyanosafracin B"}
    ]}
  ]
}
